Like-named read-outs stand apart in the source and are kept apart here.
Columns and labels:
[1] = system: HCC1954 cells; assay: HCC1954 cell proliferation (Cell Titer-Glo, 6 days); type: cell-based; settings: KIF18A-sensitive tumor cells
Description: (§1) The inhibitory effect on the KIF18A target by the compounds of the present disclosure was evaluated by testing the inhibitory effect on proliferation of HCC1954 and HCC1395 cells by the compounds of the present disclosure.
(§2) HCC1954 (ATCC, CRL-2388) and HCC1395 (ATCC, CRL-2324) cells were cultured separately in RPMI-1640 complete medium (Gibco, A1049101) containing 20% fetal bovine serum (Gibco, 10099141C), 100 U penicillin, and 100 μg/mL streptomycin (Gibco, 15140-122). The Promega kit Cell Titer-Glo (Promega: G7572) was used in this method for test. • 1. HCC1954 (KIF18A-sensitive tumor cells) and HCC1395 (KIF18A-insensitive tumor cells) were cultured separately in T75 cell culture flasks (Corning, 430641), and the medium was placed in a 37° C., 5% CO2 incubator. • 2. When the cell density reached 70% to 80% (about 2 to 3 times per week), cells are passaged with trypsin (0.25% EDTA). • 3. The cell culture flask was taken out and the cells were separated by adding 2 mL of trypsin (0.25% EDTA source) for 5 minutes. • 4. Digestion was stopped by adding 8 mL of RPM1-1640 medium and the cell suspension was transferred to a centrifuge tube and centrifuged at 1000 rpm for 5 minutes. • 5. The cells were resuspended with 5 mL of RPMI-1640 medium. Cell density was adjusted to 5×10^3/mL (HCC1954), and 2.5×10^4/mL (HCC1395), respectively. • 6. 40 μL of cell solution was added to the 384-well plate (Corning, 3765). • 7. The 384-well plate was centrifuged at 1000 rpm for 1 minute. • 8. The cells were cultured overnight in a 37° C., 5% CO2 incubator. • 9. The next day, 40 nL of compound solution was added to the 384-well plate using Echo650. The plate was then placed in a 37° C., 5% CO2 incubator for 6 days. • 10. After 6 days, 20 μL of Cell-Titer-Glo (Promega, G7572) reagent was added per well. • 11. Luminescence values were measured using the EnVision Xcite Multilabel Reader (PerkinElmer, 2105-0020).
(§3) The percentage of inhibition of cell proliferation by the test compound at each concentration was calculated by comparing with the values of the control group (0.1% DMSO). The IC50 values of the compounds were obtained by concentration-inhibition rate nonlinear regression analysis of the test compounds using GraphPad Prism 9.

[2] = system: OVCAR-3 cells; assay: OVCAR-3 cell proliferation (Cell Titer-Glo, 10 days); type: cell-based, human
Procedure, shortened: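 400 cells per well were seeded onto pre-dispensed compound (final 0.12 nM to 10 μM) in RPMI-1640 with 20% FBS and insulin, then co-cultured for 10 days. Viability was read as Cell Titer-Glo luminescence, inhibition was taken against 0.1% DMSO control, and IC50 came from nonlinear concentration-inhibition regression.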

[3] = target: KIF18A (Homo sapiens (Human), UniProt Q8NI77); assay: KIF18A ATPase activity under tubulin stimulation (ADP-Glo assay); type: biochemical; settings: KIF18A 30 nM, ATP 150 μM, pig microtubules
Chain of KIF18A (Q8NI77 whole entry): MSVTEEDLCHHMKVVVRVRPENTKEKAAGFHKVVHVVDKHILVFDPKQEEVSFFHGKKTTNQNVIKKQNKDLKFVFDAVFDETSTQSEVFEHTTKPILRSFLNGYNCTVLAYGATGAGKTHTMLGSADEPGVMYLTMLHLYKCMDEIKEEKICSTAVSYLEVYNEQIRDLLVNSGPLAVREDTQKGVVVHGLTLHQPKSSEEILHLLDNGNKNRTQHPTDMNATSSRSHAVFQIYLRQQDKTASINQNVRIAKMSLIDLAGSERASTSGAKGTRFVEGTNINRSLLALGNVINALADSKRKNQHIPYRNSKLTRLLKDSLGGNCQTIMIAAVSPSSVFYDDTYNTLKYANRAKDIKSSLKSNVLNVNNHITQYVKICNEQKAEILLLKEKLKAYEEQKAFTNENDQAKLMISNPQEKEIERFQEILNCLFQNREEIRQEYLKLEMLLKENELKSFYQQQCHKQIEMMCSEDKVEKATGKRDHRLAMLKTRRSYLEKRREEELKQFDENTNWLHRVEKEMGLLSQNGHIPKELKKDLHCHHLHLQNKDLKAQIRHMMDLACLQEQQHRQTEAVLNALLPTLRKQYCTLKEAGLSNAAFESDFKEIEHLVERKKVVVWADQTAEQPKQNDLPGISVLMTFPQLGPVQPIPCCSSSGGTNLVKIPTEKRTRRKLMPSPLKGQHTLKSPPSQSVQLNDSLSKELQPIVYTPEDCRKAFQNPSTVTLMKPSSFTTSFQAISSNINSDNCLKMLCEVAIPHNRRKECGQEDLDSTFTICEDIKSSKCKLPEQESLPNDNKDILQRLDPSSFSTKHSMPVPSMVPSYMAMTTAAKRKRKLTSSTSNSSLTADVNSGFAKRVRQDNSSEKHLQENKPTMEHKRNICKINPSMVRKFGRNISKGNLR
Chain of KIF18A (P02550 whole entry partner): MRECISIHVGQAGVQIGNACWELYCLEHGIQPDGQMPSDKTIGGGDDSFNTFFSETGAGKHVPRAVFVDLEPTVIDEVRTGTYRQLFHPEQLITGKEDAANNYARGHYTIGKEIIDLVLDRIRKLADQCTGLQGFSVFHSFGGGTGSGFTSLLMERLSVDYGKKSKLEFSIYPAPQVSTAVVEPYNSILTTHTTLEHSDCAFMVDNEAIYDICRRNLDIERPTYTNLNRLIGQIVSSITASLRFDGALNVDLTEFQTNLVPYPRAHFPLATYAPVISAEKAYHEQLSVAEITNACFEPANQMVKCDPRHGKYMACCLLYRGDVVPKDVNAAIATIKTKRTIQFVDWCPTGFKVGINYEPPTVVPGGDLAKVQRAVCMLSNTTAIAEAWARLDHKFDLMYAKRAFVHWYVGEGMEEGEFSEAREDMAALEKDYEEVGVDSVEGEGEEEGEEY
Chain of KIF18A (P02554 whole entry partner): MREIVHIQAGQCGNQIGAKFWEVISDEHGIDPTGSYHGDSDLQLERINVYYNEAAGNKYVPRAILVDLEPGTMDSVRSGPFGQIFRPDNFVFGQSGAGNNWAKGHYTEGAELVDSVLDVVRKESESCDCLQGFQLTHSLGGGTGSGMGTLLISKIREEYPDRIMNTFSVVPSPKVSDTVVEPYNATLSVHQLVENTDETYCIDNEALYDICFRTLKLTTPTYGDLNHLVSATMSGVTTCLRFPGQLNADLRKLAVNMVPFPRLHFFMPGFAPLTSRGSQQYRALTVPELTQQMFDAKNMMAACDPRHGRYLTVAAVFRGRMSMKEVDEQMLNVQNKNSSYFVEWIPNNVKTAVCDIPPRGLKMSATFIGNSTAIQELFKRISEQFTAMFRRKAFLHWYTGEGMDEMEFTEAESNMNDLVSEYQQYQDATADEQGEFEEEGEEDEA

[4] = system: HCC1395 cells; assay: HCC1395 cell proliferation (Cell Titer-Glo, 6 days); type: cell-based; settings: KIF18A-insensitive tumor cells
Description: as §1, §2, §3

| IC50 [1] | IC50 [2] | IC50 [3] | IC50 [4] | IC50 ([1]; Homo sapiens, HCC1954, 144 h) | IC50 ([2]; Homo sapiens, OVCAR-3, 240 h) | IC50 ([4]; Homo sapiens, HCC1395, 144 h) | Compound |
| --- | --- | --- | --- | --- | --- | --- | --- |
| 10 to 500 nM | 50 to 500 nM | ≤ 50 nM | > 5000 nM |  |  |  | O=C(Nc1cccc2c1ccn2CC1CC1)c1ccc(NS(=O)(=O)CCO)cc1N1CCC2(CC1)CC2 [Example 9, N-(1-(cyclopropylmethyl)-1H-indole-4-(2-hydroxyethyl)sulfonamido)-2-(6-azaspiro[2.5]octan-6-yl)benzamide] |
| 10 to 500 nM | 50 to 500 nM | 50 to 500 nM | > 5000 nM |  |  |  | O=C(Nc1cccc2c1cc(Cl)n2CC1CC1)c1ccc(NS(=O)(=O)CCO)cc1N1CCC2(CC1)CC2 [Example 13, N-(2-chloro-1-(cyclopropylmethyl)-1H-indol-4-yl)-4-((2-hydroxyethyl)sulfonamide)-2-(6-azaspiro[2.5]octan-6-yl)benzamide] |
| 10 to 500 nM | 50 to 500 nM | ≤ 50 nM | > 5000 nM |  |  |  | O=C(Nc1cccc2c1ncn2CC1CC1)c1ccc(NS(=O)(=O)CCO)cc1N1CCC2(CC1)CC2 [Example 16] |
|  |  | ≤ 50 nM |  | > 5000 nM | 50 to 500 nM | > 5000 nM | O=C(Nc1cccc2c1oc(=O)n2CC1CC1)c1ccc(NS(=O)(=O)CCO)cc1N1CCC2(CC1)CC2 [Example 18, N-(3-(cyclopropylmethyl)-2-oxo-2,3-dihydrobenzo[d]oxazol-7-yl)-4-((2-hydroxyethyl)sulfonamido)-2-(6-azaspiro[2.5]oct-6-yl)benzamide] |
| 10 to 500 nM | 50 to 500 nM | 50 to 500 nM | > 5000 nM |  |  |  | O=C(Nc1cc(F)cc2c1ccn2CC1CC1)c1ccc(NS(=O)(=O)CCO)cc1N1CCC2(CC1)CC2 [Example 50] |
|  |  | 50 to 500 nM |  | 10 to 500 nM | 50 to 500 nM | > 5000 nM | O=C(Nc1ccc(F)c2c1ccn2CC1CC1)c1ccc(NS(=O)(=O)CCO)cc1N1CCC2(CC1)CC2 [Example 56, N-(1-(cyclopropylmethyl)-7-fluoro-1H-indol-4-yl)-4-((2-hydroxyethyl)sulfonamido)-2-(6-azaspiro[2.5]octan-6-yl)benzamide] |
| 10 to 500 nM | 50 to 500 nM | ≤ 50 nM | > 5000 nM |  |  |  | O=C(Nc1cccc2c1cc1n2CCCC1)c1ccc(NS(=O)(=O)CCO)cc1N1CCC2(CC1)CC2 [Example 126, 4-((2-hydroxyethyl)sulfonamide)-2-(6-azaspiro[2.5]octan-6-yl)-N-(6,7,8,9-tetrahydropyridine[1,2-a]indole-1)benzamide] |
|  |  | 50 to 500 nM |  | 10 to 500 nM | 50 to 500 nM | > 5000 nM | CN1CCn2c(cc3c(NC(=O)c4ccc(NS(=O)(=O)CCO)cc4N4CCC5(CC4)CC5)cccc32)C1 [Example 234, 4-(2-hydroxyethyl)sulfonamido-N-(2-methyl-1,2,3,4-tetrahydropyrazino[1,2-a]indol-9-yl)-2-(6-azaspiro[2.5]octan-6-yl)benzamide] |
| 10 to 500 nM | 50 to 500 nM | ≤ 50 nM | > 5000 nM |  |  |  | O=C(Nc1cccc2nn(CC3CC3)cc12)c1ccc(NS(=O)(=O)CCO)cc1N1CCC2(CC1)CC2 [Example 269] |
|  |  | ≤ 50 nM |  | 10 to 500 nM | 50 to 500 nM | > 5000 nM | O=C(Nc1ccnc2c1cc1n2CCOC1)c1ccc(NS(=O)(=O)CCO)cc1N1CCC2(CC1)CC2 [Example 303, N-(8,9-dihydro-6H-pyrido[3′,2′:4,5]pyrrolo[2,1-c][1,4]oxazin-4-yl)-4-((2-hydroxyethyl)sulfonamido)-2-(6-azaspiro[2.5]octan-6-yl)benzamide] |
|  |  | ≤ 50 nM |  | 10 to 500 nM | ≤ 50 nM | > 5000 nM | O=C(Nc1cccc2c1nc1n2CCOC1)c1ccc(NS(=O)(=O)CCO)cc1N1CCC2(CC1)CC2 [Example 304, N-(3,4-dihydro-1H-benzo[4,5]imidazo[2,1-c][1,4]oxazin-9-yl)-4-((2-hydroxyethyl)sulfonamido)-2-(6-azaspiro[2.5]octan-6-yl)benzamide] |
